Measurements published in paper PMC4728427, “Mechanism of allosteric activation of TMEM16A/ANO1 channels by a commonly used chloride channel blocker” (British Journal of Pharmacology, 2016).

Key:
Mouse TMEM16A [1] = biological target: T1, Mouse TMEM16A (Mus musculus, UniProt Q8BHY3); assay: Concentration jump in excised inside-out or outside-out patches, 300 nM [Ca2+]i; type: cell-based; conditions: +70 mV
T1 construct: expressed in transfected cells; host or cells: HEK-293T
T1 sequence (Q8BHY3 1-960): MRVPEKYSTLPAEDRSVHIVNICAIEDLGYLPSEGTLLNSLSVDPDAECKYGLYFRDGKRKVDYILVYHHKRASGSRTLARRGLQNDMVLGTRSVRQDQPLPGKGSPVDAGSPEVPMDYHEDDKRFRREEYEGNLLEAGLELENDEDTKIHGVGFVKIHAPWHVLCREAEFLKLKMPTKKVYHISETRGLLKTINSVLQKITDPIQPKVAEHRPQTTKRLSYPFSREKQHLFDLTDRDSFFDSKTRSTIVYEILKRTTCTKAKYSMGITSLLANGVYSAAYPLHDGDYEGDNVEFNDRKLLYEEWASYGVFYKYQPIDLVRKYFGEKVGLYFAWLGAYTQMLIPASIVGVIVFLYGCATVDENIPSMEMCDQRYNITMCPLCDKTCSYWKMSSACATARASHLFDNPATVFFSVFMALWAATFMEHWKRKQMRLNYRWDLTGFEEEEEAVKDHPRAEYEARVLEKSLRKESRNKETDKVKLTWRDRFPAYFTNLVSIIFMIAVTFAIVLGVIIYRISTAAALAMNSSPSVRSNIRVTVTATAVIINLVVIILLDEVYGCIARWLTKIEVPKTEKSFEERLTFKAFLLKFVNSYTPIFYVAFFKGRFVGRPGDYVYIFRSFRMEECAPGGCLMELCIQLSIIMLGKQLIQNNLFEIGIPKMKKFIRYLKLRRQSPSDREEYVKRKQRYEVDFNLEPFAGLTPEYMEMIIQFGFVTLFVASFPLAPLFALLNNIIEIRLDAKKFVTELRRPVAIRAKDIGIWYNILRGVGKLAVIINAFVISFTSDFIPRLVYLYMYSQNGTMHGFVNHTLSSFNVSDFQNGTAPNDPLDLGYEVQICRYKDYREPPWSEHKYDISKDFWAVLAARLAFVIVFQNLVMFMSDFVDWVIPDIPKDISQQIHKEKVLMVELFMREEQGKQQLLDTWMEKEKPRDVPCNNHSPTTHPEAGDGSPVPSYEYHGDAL
Method: TMEM16A currents were measured with the whole‐cell or inside‐out patch configuration of the patch‐clamp technique as detailed in the Supporting Information. The exchange of solutions was achieved by using a local perfusion system consisting of eight tubes of 1.2 mm diameter in which the tip of the patch pipette was inserted. In some experiments, ultra‐rapid (<50 ms) changes in A9C concentration ([A9C]) (‘concentration jumps’) were achieved using a computer‐controlled perfusion system (Warner Instruments, Hamden, CT, USA).
To examine if intracellular A9C produced an activating effect on TMEM16A currents, concentration jump experiments were performed in the inside‐out configuration of the patch‐clamp technique, with A9C applied intracellularly and in the presence of 300 nM [Ca^2+]i. […] For example, I a/I 0 in the presence of 3000 μM intracellular A9C during inside‐out patches was 1.3 ± 0.1 (n = 5), while extracellular A9C produced a I a/I 0 of 27 ± 4 (n = 5) in outside‐out patches (Figure 6).

Mouse TMEM16A [2] = biological target: T1, Mouse TMEM16A; assay: Stationary noise analysis of whole-cell TMEM16A currents; type: cell-based; conditions: +70 mV, 12.5 μM [Ca2+]i; for P o: control 0.78 ± 0.02
Method: For non‐stationary noise analysis (Heinemann and Conti, 1992; Tammaro and Ashcroft, 2007), 80–200 identical pulses to a test potential of −70 mV (filtered at 10 kHz and sampled at 50 kHz) were applied, and the mean response, I, was calculated. The variance, σ ^2, was computed from the average squared difference of consecutive traces. Background variance and current at 0 mV were subtracted, and the variance–mean plot was fit by (4) σ^2=iI−I^2/N,
with the single channel current, i, and the number of channels, N, as free parameters.
TMEM16A channels are almost instantaneously activated by changes in V m in the presence of high [Ca^2+]i (12.5 μM) (e.g. Adomaviciene et al., 2013). The lack of slow time‐dependent changes in current amplitude under these conditions makes non‐stationary noise analysis unfeasible. Thus, for experiments carried out in high [Ca^2+]i, stationary noise analysis was performed instead. In the absence or presence of a fixed [A9C]ext, 10 tracts (each 600 ms in duration) of stationary currents measured at +70 mV were low‐pass filtered at 10 kHz and sampled at 50 kHz. For each tract of current, the variance and mean were calculated. The variance–mean plots obtained in the absence and presence of various [A9C]ext were fitted simultaneously with Equation (4).
Stationary noise analysis was used to determine if A9C block manifests as a change in i and/or P o of TMEM16A. Experiments were conducted in the presence of 12.5 μM [Ca^2+]i to enable examination of the effect of A9C block in the absence of A9C‐mediated activation. Mean current and variance were measured in tracts of stationary currents recorded in the absence or presence of different [A9C]ext.
With this assumption in mind, the variance–mean plots were fitted with Equation (4) (Figure 4C). The fits yielded a single value of i of 0.27 ± 0.04 pA (n = 5). P o values arising from the fits were 0.78 ± 0.02 for control (n = 5), 0.30 ± 0.08 at 100 μM [A9C]ext (n = 5) and 0.04 ± 0.01 at 1000 μM [A9C]ext (n = 5) (Figure 4D).

- I a/I 0 (current activation) (Mouse TMEM16A [1]; 3000 μM extracellular A9C, outside-out patches): 27 ± 4
- I a/I 0 (current activation) (Mouse TMEM16A [1]; 3000 μM intracellular A9C, inside-out patches): 1.3 ± 0.1
- P o (Mouse TMEM16A [2]; 100 μM [A9C]ext): 0.30 ± 0.08
- P o (Mouse TMEM16A [2]; 1000 μM [A9C]ext): 0.04 ± 0.01
- single channel current i (Mouse TMEM16A [2]; single value from simultaneous fit in absence and presence of [A9C]ext): 0.27 ± 0.04 pA
SMILES: O=C(O)c1c2ccccc2cc2ccccc12 [A9C, Anthracene‐9‐carboxylic acid]
